These results are taken from patent publication US11479551B2, “MTA-cooperative PRMT5 inhibitors” (Mirati Therapeutics, Inc., priority 2019, dated 2022).

In test [1] the test system is PRMT5-dependent Symmetric Di-methyl Arginine signal in HCT116 parental cells. Kind of test: SYM11 In-Cell Western, HCT116 parental. The following applies: Homo sapiens, HCT-116, 96 h, 4 days of treatment, SYM11/DRAQ5 ratio. Format: cell-based. Summed up: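 HCT116 parental cells (2,000/well, McCoy's 5A with 10% FBS) dosed with PRMT5 inhibitors for four days at 37° C. Fixed in paraformaldehyde and methanol, then stained with SYM11 antibody and DRAQ5.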

The next test deals with PRMT5/MEP50 complex (Homo sapiens (Human), UniProt O14744). The test can be described thus: PRMT5:MEP50 HotSpot Assay (full-length histone H2A substrate, plus and minus MTA). Format: biochemical. The note with it: IC50 + 2 μM MTA, in the presence of 2 μM MTA. In short, it runs like this: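 Radiometric filter-binding format using recombinant full-length histone H2A as substrate. After the reaction was stopped, mixtures went onto filter paper and tritiated H2A was quantified by scintillation counting.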
Chain of PRMT5/MEP50 complex (O14744 2-637): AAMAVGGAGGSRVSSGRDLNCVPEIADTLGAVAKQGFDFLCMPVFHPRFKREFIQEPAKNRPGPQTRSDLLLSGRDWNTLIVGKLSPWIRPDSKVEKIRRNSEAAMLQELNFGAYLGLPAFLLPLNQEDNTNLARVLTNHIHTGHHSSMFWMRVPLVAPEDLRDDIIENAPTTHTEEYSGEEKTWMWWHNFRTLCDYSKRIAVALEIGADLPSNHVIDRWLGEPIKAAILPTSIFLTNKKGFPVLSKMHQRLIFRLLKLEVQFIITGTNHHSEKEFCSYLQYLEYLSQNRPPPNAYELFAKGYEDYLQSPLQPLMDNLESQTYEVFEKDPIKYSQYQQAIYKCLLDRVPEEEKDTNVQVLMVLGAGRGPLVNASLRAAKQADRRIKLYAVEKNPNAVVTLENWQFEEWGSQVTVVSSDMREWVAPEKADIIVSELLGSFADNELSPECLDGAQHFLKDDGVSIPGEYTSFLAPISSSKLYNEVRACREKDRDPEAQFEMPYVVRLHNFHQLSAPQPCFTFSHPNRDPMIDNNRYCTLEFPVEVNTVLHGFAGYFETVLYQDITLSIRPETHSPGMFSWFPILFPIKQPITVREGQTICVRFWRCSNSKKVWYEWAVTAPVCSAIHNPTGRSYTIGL
Chain of PRMT5/MEP50 complex (Q9BQA1 2-342 partner): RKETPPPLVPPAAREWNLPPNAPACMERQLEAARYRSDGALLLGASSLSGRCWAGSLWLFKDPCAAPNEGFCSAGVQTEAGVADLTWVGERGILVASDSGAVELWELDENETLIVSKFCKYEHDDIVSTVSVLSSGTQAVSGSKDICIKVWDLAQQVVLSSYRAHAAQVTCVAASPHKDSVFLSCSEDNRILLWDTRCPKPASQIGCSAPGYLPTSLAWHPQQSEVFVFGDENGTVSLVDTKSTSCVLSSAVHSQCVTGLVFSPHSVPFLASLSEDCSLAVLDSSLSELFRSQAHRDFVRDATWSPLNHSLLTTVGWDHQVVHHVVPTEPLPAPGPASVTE

For the next test, the system named is HCT116 parental cells. Kind of test: Proliferation assay (CellTiter-Glo, 10 days of treatment), HCT116 parental. Format: cell-based. The note with it: Homo sapiens, HCT-116, 240 h. In short, it runs like this: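 250 cells seeded in McCoy's 5A with 10% FBS, then given a dose response of PRMT5 inhibitor at 37 °C, 5% CO2 for five days. Cells were split 1:10 on Day 6 into fresh medium with the same compound concentration for 5 more days. Viability read on Day 11 by CellTiter-Glo; IC50 after 10 days of treatment.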
(Cellular ATP, detected with luciferase, serves as a proxy for viable cell number.)

For test [2], the system named is HCT116 homozygous MTAP knockout cells. The test can be described thus: Proliferation assay (CellTiter-Glo, 10 days of treatment), HCT116 MTAP knockout. Format: cell-based. The note with it: Homo sapiens, HCT-116, 240 h, read-out: Proliferation HCT116MTAP_KO IC50. In short, it runs like this: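 Cells (250/well) seeded in McCoy's 5A with 10% FBS, then treated the next day with a PRMT5 inhibitor dose response at 37 °C, 5% CO2. On day 6 they were split 1:10 into fresh medium with the same compound concentration. CellTiter-Glo viability was read on day 11 and IC50 taken after 10 days of treatment.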

Test [3] deals with PRMT5-dependent Symmetric Di-methyl Arginine signal in HCT116 homozygous MTAP knockout cells. Kind of test: SYM11 In-Cell Western, HCT116 MTAP knockout. The following applies: Homo sapiens, HCT-116, 96 h, HCT116 homozygous MTAP knockout cells, 4 days of treatment, SYM11/DRAQ5 ratio; read-out: In-cell-Western (SYM11) HCT116 MTAP_KO IC50. It is filed as cell-based.

Regarding `Cc1c(Cl)ccc(-c2c(-c3ccc4c(=O)[nH]nc(CN)c4c3)cnn2C)c1C#N` [Example 12-1, 6-(4-(4-(aminomethyl)-1-oxo-1,2-dihydrophthalazin-6-yl)-1-methyl-1H-pyrazol-5-yl)-3-chloro-2-methylbenzonitrile], the IC50 is over 1000 nM in test [1]; 316 nM on PRMT5/MEP50 complex; over 10000 nM in the test with HCT116 parental cells; 158 nM in test [2]; 28 nM in test [3].

As to `Cc1c(-c2cnn(C)c2)ccc(-c2c(-c3ccc4c(=O)[nH]nc(CN)c4c3)cnn2C)c1C#N` [Example 12-13, 6-(4-(4-(aminomethyl)-1-oxo-1,2-dihydrophthalazin-6-yl)-1-methyl-1H-pyrazol-5-yl)-2-methyl-3-(1-methyl-1H-pyrazol-4-yl)benzonitrile], the IC50 was over 1000 nM in test [1]; 218 nM on PRMT5/MEP50 complex; 2000 nM in the test on HCT116 parental cells; 1410 nM in test [2]; 95 nM in test [3].

`N#Cc1ccccc1-c1c[nH]c2ncc(-c3ccc4c(=O)[nH]nc(CN)c4c3)cc12` [Example 4-163, 2-(5-(4-(aminomethyl)-1-oxo-1,2-dihydrophthalazin-6-yl)-1H-pyrrolo[2,3-b]pyridin-3-yl)benzonitrile]: the IC50 in test [1] is over 3330 nM; at PRMT5/MEP50 complex it was 3820 nM; in the test with HCT116 parental cells, over 10000 nM; in test [2] it was over 10000 nM; in test [3] it was over 3330 nM.

`Cn1ncc(-c2ccc3c(=O)[nH]nc(CN)c3c2)c1-c1cc(C2CC2)ccc1C#N` [Example 4-161, 2-(4-(4-(aminomethyl)-1-oxo-1,2-dihydrophthalazin-6-yl)-1-methyl-1H-pyrazol-5-yl)-4-cyclopropylbenzonitrile]: the IC50 in test [1] is 6560 nM; on PRMT5/MEP50 complex, 707 nM; with HCT116 parental cells, 6720 nM; in test [2], 617 nM; in test [3], 87.5 nM.

For the compound `COc1ccc(-c2c(-c3ccc4c(=O)[nH]nc(CN)c4c3)cnn2C)c(C#N)c1` [Example 4-160, 2-(4-(4-(aminomethyl)-1-oxo-1,2-dihydrophthalazin-6-yl)-1-methyl-1H-pyrazol-5-yl)-5-methoxybenzonitrile], the IC50 is over 10000 nM in test [1]; 1110 nM at PRMT5/MEP50 complex; 7700 nM with HCT116 parental cells; 2030 nM in test [2]; 944 nM in test [3].

Consider `CCOc1cccc(-c2c(-c3cc(F)c4c(=O)[nH]nc(CN)c4c3)cnn2C)c1C#N` [Example 10-10, 2-(4-(4-(aminomethyl)-8-fluoro-1-oxo-1,2-dihydrophthalazin-6-yl)-1-methyl-1H-pyrazol-5-yl)-6-ethoxybenzonitrile], for which the IC50 in test [1] was over 10000 nM; at PRMT5/MEP50 complex, 2730 nM; in the test with HCT116 parental cells, over 10000 nM; in test [2] it was 1250 nM; in test [3], 89 nM.

On to `Cc1cc(Cl)c(C#N)c(-c2c(-c3ccc4c(=O)[nH]nc(CN)c4c3)cnn2C)c1` [Example 4-150, 2-(4-(4-(aminomethyl)-1-oxo-1,2-dihydrophthalazin-6-yl)-1-methyl-1H-pyrazol-5-yl)-6-chloro-4-methylbenzonitrile], for which the IC50 in test [1] is 8390 nM; at PRMT5/MEP50 complex, 673 nM; in the test with HCT116 parental cells it was over 10000 nM; in test [2], 661 nM; in test [3], 18 nM.

For the compound `Cn1ncc(-c2ccc3c(=O)[nH]nc(CN)c3c2)c1-c1ccc(Cl)c(Cl)c1` [Example 4-140, 4-(aminomethyl)-6-(5-(3,4-dichlorophenyl)-1-methyl-1H-pyrazol-4-yl)phthalazin-1(2H)-one], the IC50 in test [1] was over 10000 nM; at PRMT5/MEP50 complex, 1100 nM; with HCT116 parental cells it was 6810 nM; in test [2], 3870 nM; in test [3], 47 nM.

As for `Cn1ncc(-c2ccc3c(=O)[nH]nc(CN)c3c2)c1-c1cc(Cl)cc(OC2CC2)c1C#N` [Example 4-188, 2-(4-(4-(aminomethyl)-1-oxo-1,2-dihydrophthalazin-6-yl)-1-methyl-1H-pyrazol-5-yl)-4-chloro-6-cyclopropoxybenzonitrile], the IC50 was over 10000 nM in test [1]; 99 nM on PRMT5/MEP50 complex; 904 nM in the test on HCT116 parental cells; 39 nM in test [2]; 4 nM in test [3].

For the compound `CCc1cccc(-c2c(-c3cc(Cl)c4c(=O)[nH]nc(CN)c4c3)cnn2C)c1C#N` [Example 10-4, 2-(4-(4-(aminomethyl)-8-chloro-1-oxo-1,2-dihydrophthalazin-6-yl)-1-methyl-1H-pyrazol-5-yl)-6-ethylbenzonitrile], the IC50 in test [1] is 9220 nM; on PRMT5/MEP50 complex, 417 nM; with HCT116 parental cells, over 10000 nM; in test [2] it was 128 nM; in test [3], 7 nM.

Turning to `COc1cc(Cl)c(C#N)c(-c2c(-c3ccc4c(=O)[nH]nc(CN)c4c3)cnn2C)c1` [Example 4-169, 2-(4-(4-(aminomethyl)-1-oxo-1,2-dihydrophthalazin-6-yl)-1-methyl-1H-pyrazol-5-yl)-6-chloro-4-methoxybenzonitrile], the IC50 in test [1] was 4520 nM; on PRMT5/MEP50 complex it was 1350 nM; in the test on HCT116 parental cells, over 10000 nM; in test [2], 294 nM; in test [3] it was 35.5 nM.

Regarding `Cn1ncc(-c2ccc3c(=O)[nH]nc(CN)c3c2)c1-c1ccc2ccccc2n1` [Example 4-182, 4-(aminomethyl)-6-(1-methyl-5-(quinolin-2-yl)-1H-pyrazol-4-yl)phthalazin-1(2H)-one], the IC50 was over 1000 nM in test [1]; 1420 nM at PRMT5/MEP50 complex; 7250 nM with HCT116 parental cells; 572 nM in test [2]; 58 nM in test [3].

Consider `CCc1cc(CC)c(C#N)c(-c2c(-c3ccc4c(=O)[nH]nc(CN)c4c3)cnn2C)c1` [Example 12-3, 2-[4-[4-(aminomethyl)-1-oxo-2H-phthalazin-6-yl]-2-methyl-pyrazol-3-yl]-4,6-diethyl-benzonitrile], for which the IC50 in test [1] was over 1000 nM; at PRMT5/MEP50 complex, 212 nM; with HCT116 parental cells it was 1690 nM; in test [2] it was 137 nM; in test [3] it was 8 nM.

On to `CCOc1cccc(-c2c(-c3ccc4c(=O)[nH]nc(CN)c4c3)cnn2C)c1C#N` [Example 4-146, 2-(4-(4-(aminomethyl)-1-oxo-1,2-dihydrophthalazin-6-yl)-1-methyl-1H-pyrazol-5-yl)-6-ethoxybenzonitrile], for which the IC50 in test [1] was 6690 nM; on PRMT5/MEP50 complex, 569 nM; with HCT116 parental cells, over 10000 nM; in test [2], 261 nM; in test [3], 40 nM.

Turning to `Cc1cc(-c2cnn(C)c2-c2cccc(OC3CC3)c2C#N)cc2c(CN)n[nH]c(=O)c12` [Example 10-12, 2-(4-(4-(aminomethyl)-8-methyl-1-oxo-1,2-dihydrophthalazin-6-yl)-1-methyl-1H-pyrazol-5-yl)-6-cyclopropoxybenzonitrile], the IC50 in test [1] was over 1000 nM; on PRMT5/MEP50 complex, 155 nM; with HCT116 parental cells, 6200 nM; in test [2], 91 nM; in test [3], 6 nM.

Turning to `Cc1cc(C2CC2)cc(-c2c(-c3ccc4c(=O)[nH]nc(CN)c4c3)cnn2C)c1C#N` [Example 12-14, 2-[4-[4-(aminomethyl)-1-oxo-2H-phthalazin-6-yl]-2-methyl-pyrazol-3-yl]-4-cyclopropyl-6-methyl-benzonitrile], the IC50 was 1810 nM in test [1]; 182 nM on PRMT5/MEP50 complex; over 10000 nM in the test on HCT116 parental cells; 226 nM in test [2]; 15 nM in test [3].

Take `COc1cc(-c2c(-c3ccc4c(=O)[nH]nc(CN)c4c3)cnn2C)c(C#N)cc1Cl` [Example 4-130, 2-(4-(4-(aminomethyl)-1-oxo-1,2-dihydrophthalazin-6-yl)-1-methyl-1H-pyrazol-5-yl)-5-chloro-4-methoxybenzonitrile]: the IC50 was over 10000 nM in test [1]; 1950 nM at PRMT5/MEP50 complex; over 10000 nM in the test with HCT116 parental cells; 756 nM in test [2]; 24 nM in test [3].

Turning to `Cn1ncc(-c2cc(F)c3c(=O)[nH]nc(CN)c3c2)c1-c1ccc2ccccc2c1C#N` [Example 10-2, 2-(4-(4-(aminomethyl)-8-fluoro-1-oxo-1,2-dihydrophthalazin-6-yl)-1-methyl-1H-pyrazol-5-yl)-1-naphthonitrile], the IC50 in test [1] was 2480 nM; at PRMT5/MEP50 complex, 67.2 nM; in the test on HCT116 parental cells, 3380 nM; in test [2], 112 nM; in test [3] it was 6 nM.

As for `CC(C)c1ccc(-c2c(-c3ccc4c(=O)[nH]nc(CN)c4c3)cnn2C)cc1` [Example 4-135, 4-(aminomethyl)-6-(5-(4-isopropylphenyl)-1-methyl-1H-pyrazol-4-yl)phthalazin-1(2H)-one], the IC50 in test [1] was determined as 3210 nM; on PRMT5/MEP50 complex it was 641 nM; with HCT116 parental cells, 6610 nM; in test [2] it was 3760 nM; in test [3], 31 nM.
